Drawing on ChEMBL document CHEMBL2073997, “Effect of multidrug resistance-reversing agents on transporting activity of human canalicular multispecific organic anion transporter” (Mol Pharmacol, 1999), this text covers Ki, Activity and Km for 6 molecules.

For data set [1], the target named is T1, ATP-binding cassette sub-family C member 2 (Homo sapiens, UniProt Q92887). Nature of the data set: TP_TRANSPORTER: inhibition of LTC4 uptake in membrane vesicles from MRP2-expressing LLC PK1 cells. It counts as functional, cell membranes, Membrane vesicle.
Data set [2] deals with T1, ATP-binding cassette sub-family C member 2. Nature of the data set: TP_TRANSPORTER: increase in Vincristine intracellular accumulation (Vincristine: 1 uM, PAK-104P: 10 uM) in MRP2-expressing LLC PK1 cells. The following applies: pig, llc-pk1, 10 µM. It counts as functional, cell-based.
For data set [3] the target is unchanged. Nature of the data set: (§1) TP_TRANSPORTER: uptake in membrane vesicles from MRP2-expressing LLC PK1 cells. In kind it is functional, cell membranes, Membrane vesicle. The following applies: pig.
Data set [4] shares this target. Nature of the data set: TP_TRANSPORTER: increase in Vincristine intracellular accumulation (Vincristine: 1 uM, MK571: 10 uM) in MRP2-expressing LLC PK1 cells. In kind it is functional, cell-based. The following applies: pig, llc-pk1, 10 µM.
Data set [5] has the same target. Nature of the data set: TP_TRANSPORTER: increase in Vincristine intracellular accumulation (Vincristine: 1 uM, PSC-833: 10 uM) in MRP2-expressing LLC PK1 cells. In kind it is functional, cell-based. The following applies: pig, llc-pk1, 10 µM.
Data set [6] shares this target. Nature of the data set: TP_TRANSPORTER: intracellular accumulation in MRP2-expressing LLC PK1 cells. In kind it is functional, cell-based. The following applies: pig.
Substrate in data set [7]: CCCCC/C=C\C\C=C/C=C/C=C/[C@@H](SC[C@@H](NC(=O)CC[C@H](N)C(=O)O)C(=O)NCC(=O)O)[C@@H](O)CCCC(=O)O
The description is as §1. In kind it is functional, cell membranes, Membrane vesicle.

The Ki is a measure of affinity in units of concentration, obtained from inhibition or displacement. On to `Cc1nc(C)c(P2(=O)O[C@H](C)C[C@@H](C)O2)c(-c2cccc([N+](=O)[O-])c2)c1C(=O)OCCN1CCN(C(c2ccccc2)c2ccccc2)CC1` (some centres undefined), for which the affinity in data set [1], expressed as Ki, was 3.7 µM. Moreover, the Activity result in data set [2] is “inhibitor [+]”.
For `N[C@@H](CCC(=O)N[C@H](CSc1ccc([N+](=O)[O-])cc1[N+](=O)[O-])C(=O)NCC(=O)O)C(=O)O`, the Activity entry in data set [3] was “substrate [+]”.
`CN(C)C(=O)CCSC(SCCC(=O)O)c1cccc(/C=C/c2ccc3ccc(Cl)cc3n2)c1` (centres undefined) [MK-571] showed a Ki in data set [1] of 13.1 µM. Further, the Activity result in data set [4] is “inhibitor [+]”.
As to `C/C=C/C[C@@H](C)C(=O)[C@H]1C(=O)N[C@@H](C(C)C)C(=O)N(C)CC(=O)N(C)[C@@H](CC(C)C)C(=O)N[C@@H](C(C)C)C(=O)N(C)[C@@H](CC(C)C)C(=O)N[C@@H](C)C(=O)N[C@H](C)C(=O)N(C)[C@@H](CC(C)C)C(=O)N(C)[C@@H](CC(C)C)C(=O)N(C)[C@@H](C(C)C)C(=O)N1C` [VALSPODAR], the Ki in data set [1] turned out to be 28.9 µM. Moreover, the Activity entry in data set [5] is “inhibitor [+]”.
Turning to `CC[C@]1(O)C[C@H]2CN(CCc3c([nH]c4ccccc34)[C@@](C(=O)OC)(c3cc4c(cc3OC)N(C=O)[C@H]3[C@@](O)(C(=O)OC)[C@H](OC(C)=O)[C@]5(CC)C=CCN6CC[C@]43[C@@H]65)C2)C1` [VINCRISTINE], the Activity result in data set [6] is “substrate [+]”.

B1: ATP-binding cassette sub-family C member 2 (Homo sapiens) (protein)
chain: MLEKFCNSTFWNSSFLDSPEADLPLCFEQTVLVWIPLGYLWLLAPWQLLHVYKSRTKRSSTTKLYLAKQVFVGFLLILAAIELALVLTEDSGQATVPAVRYTNPSLYLGTWLLVLLIQYSRQWCVQKNSWFLSLFWILSILCGTFQFQTLIRTLLQGDNSNLAYSCLFFISYGFQILILIFSAFSENNESSNNPSSIASFLSSITYSWYDSIILKGYKRPLTLEDVWEVDEEMKTKTLVSKFETHMKRELQKARRALQRRQEKSSQQNSGARLPGLNKNQSQSQDALVLEDVEKKKKKSGTKKDVPKSWLMKALFKTFYMVLLKSFLLKLVNDIFTFVSPQLLKLLISFASDRDTYLWIGYLCAILLFTAALIQSFCLQCYFQLCFKLGVKVRTAIMASVYKKALTLSNLARKEYTVGETVNLMSVDAQKLMDVTNFMHMLWSSVLQIVLSIFFLWRELGPSVLAGVGVMVLVIPINAILSTKSKTIQVKNMKNKDKRLKIMNEILSGIKILKYFAWEPSFRDQVQNLRKKELKNLLAFSQLQCVVIFVFQLTPVLVSVVTFSVYVLVDSNNILDAQKAFTSITLFNILRFPLSMLPMMISSMLQASVSTERLEKYLGGDDLDTSAIRHDCNFDKAMQFSEASFTWEHDSEATVRDVNLDIMAGQLVAVIGPVGSGKSSLISAMLGEMENVHGHITIKGTTAYVPQQSWIQNGTIKDNILFGTEFNEKRYQQVLEACALLPDLEMLPGGDLAEIGEKGINLSGGQKQRISLARATYQNLDIYLLDDPLSAVDAHVGKHIFNKVLGPNGLLKGKTRLLVTHSMHFLPQVDEIVVLGNGTIVEKGSYSALLAKKGEFAKNLKTFLRHTGPEEEATVHDGSEEEDDDYGLISSVEEIPEDAASITMRRENSFRRTLSRSSRSNGRHLKSLRNSLKTRNVNSLKEDEELVKGQKLIKKEFIETGKVKFSIYLEYLQAIGLFSIFFIILAFVMNSVAFIGSNLWLSAWTSDSKIFNSTDYPASQRDMRVGVYGALGLAQGIFVFIAHFWSAFGFVHASNILHKQLLNNILRAPMRFFDTTPTGRIVNRFAGDISTVDDTLPQSLRSWITCFLGIISTLVMICMATPVFTIIVIPLGIIYVSVQMFYVSTSRQLRRLDSVTRSPIYSHFSETVSGLPVIRAFEHQQRFLKHNEVRIDTNQKCVFSWITSNRWLAIRLELVGNLTVFFSALMMVIYRDTLSGDTVGFVLSNALNITQTLNWLVRMTSEIETNIVAVERITEYTKVENEAPWVTDKRPPPDWPSKGKIQFNNYQVRYRPELDLVLRGITCDIGSMEKIGVVGRTGAGKSSLTNCLFRILEAAGGQIIIDGVDIASIGLHDLREKLTIIPQDPILFSGSLRMNLDPFNNYSDEEIWKALELAHLKSFVASLQLGLSHEVTEAGGNLSIGQRQLLCLGRALLRKSKILVLDEATAAVDLETDNLIQTTIQNEFAHCTVITIAHRLHTIMDSDKVMVLDNGKIIECGSPEELLQIPGPFYFMAKEAGIENVNSTKF
For orientation: Km means the concentration of substrate that gives half-maximal velocity. For B1, the Km in data set [7] stood at 0.26 µM.
